# According to US7531553B2, “Heterocyclic compounds and methods of use” (Amgen Inc., priority 2003, dated 2009):
# System: Human Umbilical Vein Endothelial cells
# Test: HUVEC proliferation assay (VEGF-stimulated)
# Assay type: cell-based
# Details: VEGF 50 ng/mL final, 72 h incubation, CyQuant dye, read-out: inhibited VEGF-stimulated HUVEC proliferation at a level (IC50)
# Description: Human Umbilical Vein Endothelial cells are purchased from Clonetics, Inc., as cryopreserved cells harvested from a pool of donors. These cells, at passage 1, are thawed and expanded in EBM-2 complete medium, until passage 2 or 3. The cells are trypsinized, washed in DMEM+10% FBS+antibiotics, and spun at 1000 rpm for 10 min. Prior to centrifugation of the cells, a small amount is collected for a cell count. After centrifugation, the medium is discarded, and the cells are resuspended in the appropriate volume of DMEM+10% FBS+antibiotics to achieve a concentration of 3×10^5 cells/mL. Another cell count is performed to confirm the cell concentration. The cells are diluted to 3×10^4 cells/mL in DMEM+10% FBS+antibiotics, and 100 μL of cells are added to a 96-well plate. The cells are incubated at 37° C. for 22 h.
# Prior to the completion of the incubation period, compound dilutions are prepared. Five-point, five-fold serial dilutions are prepared in DMSO, at concentrations 400-fold greater than the final concentrations desired. 2.5 μL of each compound dilution are diluted further in a total of 1 mL DMEM+10% FBS+antibiotics (400× dilution). Medium containing 0.25% DMSO is also prepared for the 0 μM compound sample. After 22-h, the medium is removed from the cells, and 100 μL of each compound dilution is added. The cells are incubated at 37° C. for 2-3 h.
# During the compound pre-incubation period, the growth factors are diluted to the appropriate concentrations. Solutions of DMEM+10% FBS+antibiotics, containing either VEGF or bFGF at the following concentrations: 50, 10, 2, 0.4, 0.08, and 0 ng/mL are prepared. For the compound-treated cells, solutions of VEGF at 550 ng/mL or bFGF at 220 ng/mL for 50 ng/mL or 20 ng/mL final concentrations, respectively, are prepared since 10 μL of each will be added to the cells (110 μL final volume). At the appropriate time after adding the compounds, the growth factors are added. VEGF is added to one set of plates, while bFGF is added to another set of plates. For the growth factor control curves, the media on wells B4-G6 of plates 1 and 2 are replaced with media containing VEGF or bFGF at the varying concentrations (50-0 ng/mL). The cells are incubated at 37° C. for an additional 72 h.
# At the completion of the 72 h incubation period, the medium is removed, and the cells are washed twice with PBS. After the second wash with PBS, the plates are tapped gently to remove excess PBS, and the cells are placed at −70° C. for at least 30 min. […] Raw data are collected and analyzed using a 4-parameter fit equation in XLFit. IC50 values are then determined.
row,SMILES,IC50 [µM]
1,"CC(C)N1CCC[C@H]1COc1cc(Nc2nc3cc(Oc4ccnc5[nH]ccc45)ccc3o2)ccc1Cl [Example 247, S-[4-Chloro-3-(1-isopropylpyrrolidin-2-ylmethoxy)-phenyl]-[5-(1H-pyrrolo[2,3-b]pyridin-4-yloxy)-benzoxazol-2-yl]-amine]",< 0.1
2,"CN1CCC[C@H]1COc1cc(Nc2nc3cc(Oc4ccnc(C(N)=O)c4)ccc3o2)ccc1Cl [Example 240, 4-{2-[4-Chloro-3-((2S)-1-methylpyrrolidin-2-ylmethoxy)-phenylamino]-benzoxazol-5-yloxy}-pyridine-2-carboxylic acid amide]",< 0.1
3,"CN(C)C1CCN(Cc2cc(Nc3nc4cc(Oc5ccnc6[nH]ccc56)ccc4o3)ccc2Cl)C1 (stereo not shown) [Example 264, [4-Chloro-3-(3-dimethylamino-pyrrolidin-1-ylmethyl)-phenyl]-[5-(1H-pyrrolo[2,3-b]pyridin-4-yloxy)-benzoxazol-2-yl]-amine]",< 0.1
4,CNC(=O)c1cc(Oc2ccc3oc(Nc4ccc(C(C)C)cc4)nc3c2)ccn1 [Example 39],< 0.1
